Test [1] deals with Influenza B virus. As to the kind of experiment: Effective dose required to reduce virus induced cytopathogenicity by Influenza B(Fu 207) was determined. It counts as functional, organism-based.
Test [2] deals with Human betaherpesvirus 5. As to the kind of experiment: Effective dose required for plaque reduction in human cytomegalovirus (HCMV) was determined. It counts as functional, organism-based.
Test [3] concerns Vesicular stomatitis virus. Description: Effective dose required for plaque reduction in vesicular stomatitis virus (VSV) was determined. Format: functional, organism-based.
The nature of test [4]: Evaluated for time-dependent and irreversible inhibitor of bovine S-adenosyl-L-homocysteine. Further details: species or system Bos taurus.
The subject of test [5] is Influenza B virus. As to the kind of experiment: Effective dose required to reduce virus induced cytopathogenicity by Influenza B(singapore) was determined. Format: functional, organism-based. A general note: Damage to the host cells serves as the signal in cytopathic effect assays.
Test [6] has as its system Influenza A virus. As to the kind of experiment: Effective dose required to reduce virus induced cytopathogenicity by Influenza A(H1N1,Fu 88) was determined. It counts as functional, organism-based.
Test [7] relates to Influenza B virus. As to the kind of experiment: Effective dose required to reduce virus induced cytopathogenicity by Influenza B (Fu 207) was determined. It counts as functional, organism-based.

In brackets after ≈: the same amount, converted by molar mass.

Broadly, the EC50 is the concentration at which the effect is half-maximal. The low end stands for an effect from little substance, the high end for a need for much substance.

As to `N#C[C@H]1OC(n2cnc3c(N)ncnc32)[C@H](O)[C@@H]1O` (some centres not stated), the values for the EC50 in test [1], in test [2] and in test [3] were 10 µg/mL (≈ 38.1 µM), 1.4 µg/mL (≈ 5.34 µM) and 1.2 µg/mL (≈ 4.58 µM), respectively.

Regarding `C#C[C@H]1OC(n2cnc3c(N)ncnc32)[C@H](O)[C@@H]1O` (some centres not stated), the EC50 stood at 1.8 µg/mL (≈ 6.89 µM) in test [1]; 8.2 µg/mL (≈ 31.4 µM) in test [2]; 0.14 µg/mL (≈ 0.536 µM) in test [3]; 0.9 µg/mL (≈ 3.45 µM) in test [5]; 0.38 µg/mL (≈ 1.45 µM) in test [6]. The Ki in test [4] is 173 nM.

For `Nc1ncnc2c1ncn2C1O[C@H](C=C(Br)Br)[C@@H](O)[C@H]1O` (some centres not stated), the EC50 in test [7] was 32 µg/mL (≈ 76 µM); in test [2] it was over 10 µg/mL; in test [3] it was over 10 µg/mL.

For `Nc1ncnc2c1ncn2[C@@H]1C=C(CO)[C@@H](O)[C@H]1O` [NEOPLANOCIN A], the EC50 was over 20 µg/mL in test [1]; 0.2 µg/mL (≈ 0.76 µM) in test [2]; 0.38 µg/mL (≈ 1.44 µM) in test [3]; over 20 µg/mL in test [5]; over 20 µg/mL in test [6].

Take `NC(=O)c1ncn([C@@H]2O[C@H](CO)[C@@H](O)[C@H]2O)n1` [RIBAVIRIN]: the EC50 in test [1] was 36.9 µg/mL (≈ 151 µM); in test [2], over 10 µg/mL; in test [3], over 10 µg/mL; in test [5], 6.7 µg/mL (≈ 27.4 µM); in test [6], 19.6 µg/mL (≈ 80.3 µM).

(Values after ChEMBL document CHEMBL1128782, “Nucleosides and nucleotides. 142. an alternative synthesis of and its antiviral activity” (Bioorg Med Chem Lett, 1995).)
